System: IRE1/XBP1s
Assay: XBP1 endoplasmic reticulum stress reporter assay (CMV-XBP-GLuc)
Assay type: cell-based, human
Conditions: Figure S5; for Mean diff, MG132 vs. RUN compound (log2-transformed values) / Mean diff, DMSO vs. treatment (log2-transformed values): Dunnett's multiple comparisons test; for Mean 2 (mean of log2-transformed values, treatment; DMSO = 0): N = 3
Description: Next, we investigated whether the selected RUN compounds activate the NFE2L1 transcriptional program without triggering the unfolded protein response (UPR), a crucial cellular process induced by the accumulation of unfolded proteins in the endoplasmic reticulum (ER), potentially leading to ER stress. To monitor this, an alternative reporter was used to assess the activation of IRE1/XBP1s.[47] IRE1 is a bifunctional serine/threonine kinase and endoribonuclease embedded in the ER membrane, playing a central role in UPR signaling. Its RNase activity facilitates the splicing of X-box binding protein 1 (XBP1) mRNA. The spliced XBP1 acts as a transcription factor, promoting the re-establishment of ER homeostasis by upregulating genes involved in the ER-associated degradation (ERAD) pathway.[48–50] The reporter contains Gaussia luciferase positioned out of frame downstream of the XBP1 splice site, ensuring that active luciferase translation occurs only in the presence of ER stress.[51,52] Cells transfected with this reporter were treated with RUN compounds at 1, 5, and 10 μM, and luciferase activity was measured.
Figure S5: Impact of RUN compounds on ER stress-induced activation of the XBP1 reporter.
HEK293 cells were transfected with the CMV-XBP-GLuc reporter plasmid and allowed to stabilize overnight. Following stabilization, the cells were treated with MG132 or various concentrations of the test compounds (1, 2, 3, 5, 7.5, and 10 µM) for 16 hours. The Gaussia luciferase signal, which reflects XBP1 mRNA splicing, was adjusted based on cell viability as measured by the alamarBlue assay. Data are represented as Geomean ± GeoSD of three independent experiments ( n = 3. Statistical comparison of MG132 and RUN compounds vs DMSO and RUN compounds vs MG132 was performed on log2-transformed values using two-way repeated-measures ANOVA with Geisser –Greenhouse correction, followed by Dunnett’s multiple comparisons test with individual variances computed for each comparison. Results of the analysis are shown in Supplementary Table S15. […]
GraphPad Prism (v 10.6.1).
2.8 XBP1-endoplasmic reticulum (ER) stress reporter assay
HEK293 cells were seeded in 6-well plates and incubated for 24 hours before being transfected with a plasmid containing the CMV-XBP-Gluc reporter using Lipofectamine 2000.(4) After 6 hours, the transfected cells were subsequently transferred to 384-well plates, stabilized overnight, and treated with the proteasome inhibitor and ER stress inducer MG132 and/or various concentrations of RUN compounds (1, 5, and 10 µM) or vehicle (DMSO) for 16 hours. Luciferase activity was normalized to cell viability, which was assessed using the alamarBlue assay. The results are expressed as the fold change compared with the DMSO control, with the experiment conducted in biological triplicate. […]

| Compound | Mean diff, MG132 vs. RUN compound (log2-transformed values) (1 µM) | Mean 2 (mean of log2-transformed values, treatment; DMSO = 0) (1 µM) | Mean diff, MG132 vs. RUN compound (log2-transformed values) (5 µM) | Mean 2 (mean of log2-transformed values, treatment; DMSO = 0) (5 µM) | Mean diff, MG132 vs. RUN compound (log2-transformed values) (10 uM) | Mean 2 (mean of log2-transformed values, treatment; DMSO = 0) (10 uM) | Mean diff, DMSO vs. treatment (log2-transformed values) (DMSO vs. 1 µM) | Mean diff, DMSO vs. treatment (log2-transformed values) (DMSO vs. 5 µM) | Mean diff, DMSO vs. treatment (log2-transformed values) (DMSO vs. 10 uM) |
| --- | --- | --- | --- | --- | --- | --- | --- | --- | --- |
| COc1ccc(/C=C2\CC(N)C/C(=C\c3ccc(OC)c(OC)c3)C2=O)cc1OC (stereo not drawn) [RUN-81] | 2.079 | 0.02701 | 2.509 | 0.216 | 3.74 | 0.2168 | -0.02701 | -0.216 | -0.2168 |
| COc1ccc(/C=C2\CC(NC(=O)C3CCCC3)C/C(=C\c3ccc(OC)c(OC)c3)C2=O)cc1OC (stereo not drawn) [RUN-89] | 1.977 | 0.1287 | 1.754 | 0.9716 | 2.213 | 1.744 | -0.1287 | -0.9716 | -1.744 |
| COc1ccc(/C=C2\CC(NC(=O)c3ccccn3)C/C(=C\c3ccc(OC)c(OC)c3)C2=O)cc1OC (stereo not drawn) [RUN-94] | 2.183 | -0.07708 | 1.118 | 1.607 | 2.807 | 1.15 | 0.07708 | -1.607 | -1.15 |

Source: publication PMC12606464, “Investigating NFE2L1 activators for targeted protein aggregate clearance: a follow-up study” (RSC Medicinal Chemistry, 2025)
